This test has as its system nude mice, HT29 intrarenal xenograft, tumor weight T/C. The test is described as follows: NCI In Vivo Anticancer Drug Screen. Data for tumor model HT29;CX-1 Human Adenocarcinoma (MER+) (intrarenal inoculation) in NU/NU Swiss (nude) mice. To be noted: endpoint: mean tumor weight change, higher = larger tumour. Put shortly:
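Mice with transplanted tumors are dosed with compound while controls get vehicle only. Survival or tumor burden is then assessed per group, and the treated value is expressed relative to control.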

Setting [1] is: dose: 150.0 mg/kg/injection, schedule: Q04DX004 (sc), vehicle: Klucel (hydroxypropylcellulose) (HPC).
The mark [2] stands for this setting: dose: 300.0 mg/kg/injection, schedule: Q04DX004 (sc), vehicle: Klucel (hydroxypropylcellulose) (HPC).
Setting [3] is: dose: 600.0 mg/kg/injection, schedule: Q04DX004 (sc), vehicle: Klucel (hydroxypropylcellulose) (HPC).
Setting [4] is: dose: 1200.0 mg/kg/injection, schedule: Q04DX004 (sc), vehicle: Klucel (hydroxypropylcellulose) (HPC).
[5] abbreviates: dose: 25.0 mg/kg/injection, schedule: Q01DX010 (sc), vehicle: saline.

The results in this text go back to PubChem BioAssay AID206 (DTP/NCI, 2004).

Inconclusive results are not listed.

As for `Nc1nc(=O)n(C2OC(CO)C(O)C2O)cc1F` (stereo not given), the T/C is, setting by setting: (dose: 150.0 mg/kg/injection, schedule: Q04DX004 (ip), vehicle: saline) 122 % of control; (dose: 300.0 mg/kg/injection, schedule: Q04DX004 (ip), vehicle: saline) 56 % of control; (dose: 600.0 mg/kg/injection, schedule: Q04DX004 (ip), vehicle: saline) 83 % of control; (dose: 600.0 mg/kg/injection, schedule: Q04DX004 (sc), vehicle: saline) 26 % of control; (dose: 1200.0 mg/kg/injection, schedule: Q04DX004 (ip), vehicle: saline) 42 % of control; (dose: 1200.0 mg/kg/injection, schedule: Q04DX004 (sc), vehicle: saline) 11 % of control.

Take `O=C(O)CCCCCCCC(=O)O`: the T/C was 67 % of control (dose: 600.0 mg/kg/injection, schedule: Q04DX004 (sc), vehicle: distilled water + Tween-80) and 113 % of control (dose: 2400.0 mg/kg/injection, schedule: Q04DX004 (sc), vehicle: distilled water + Tween-80).

Regarding `CN1CCc2c(c3ccccc3c3ccccc23)C1`, the T/C was 105 % of control under setting [1], 80 % of control under setting [2] and 111 % of control under setting [3].

Regarding `CCc1ccccc1N1CCN(C(=O)c2cc(OC)c(OC)c(OC)c2)CC1`, the T/C is 57 % of control under setting [2], 120 % of control under setting [3] and 84 % of control under setting [4].

With `CN(C)N=Nc1ccccc1`, the T/C runs as follows: (dose: 25.0 mg/kg/injection, schedule: Q04DX004 (sc), vehicle: Klucel (hydroxypropylcellulose) (HPC)) 93 % of control; (dose: 50.0 mg/kg/injection, schedule: Q04DX004 (sc), vehicle: Klucel (hydroxypropylcellulose) (HPC)) 62 % of control; (dose: 100.0 mg/kg/injection, schedule: Q04DX004 (sc), vehicle: Klucel (hydroxypropylcellulose) (HPC)) 84 % of control.

In the case of `CNc1n[n+](-c2ccccc2)no1`, the T/C runs as follows: (dose: 37.5 mg/kg/injection, schedule: Q04DX004 (sc), vehicle: water) 117 % of control; (dose: 75.0 mg/kg/injection, schedule: Q04DX004 (sc), vehicle: water) 115 % of control.

Consider `C=C1C(=O)OCC2C(C(=O)O)=CC3C(C)C(C)=CC123` (stereo not given), for which the T/C (dose: 12.5 mg/kg/injection, schedule: Q01DX010 (sc), vehicle: Klucel (hydroxypropylcellulose) (HPC)) is 71 % of control and the T/C (dose: 25.0 mg/kg/injection, schedule: Q01DX010 (sc), vehicle: Klucel (hydroxypropylcellulose) (HPC)) was 94 % of control.

For the compound `Nc1ncnc2c1ncn2C1OC(CO)C(O)C1O` (stereo not given), the T/C is, setting by setting: (dose: 37.5 mg/kg/injection, schedule: Q04DX004 (sc), vehicle: saline) 97 % of control; (dose: 75.0 mg/kg/injection, schedule: Q04DX004 (sc), vehicle: saline) 84 % of control; under setting [1], 67 % of control; (dose: 150.0 mg/kg/injection, schedule: Q04DX004 (sc), vehicle: saline) 44 % of control; under setting [2], 78 % of control; under setting [3], 94 % of control. Under setting [4], the T/C was 66 % of control.

`OCCN1CCN(CC/C=C2/c3ccccc3Sc3ccc(C(F)(F)F)cc32)CC1`: the T/C runs as follows: (dose: 5.0 mg/kg/injection, schedule: Q01DX010 (sc), vehicle: saline) 80 % of control; (dose: 10.0 mg/kg/injection, schedule: Q01DX010 (sc), vehicle: saline) 49 % of control; (dose: 20.0 mg/kg/injection, schedule: Q01DX010 (sc), vehicle: saline) 67 % of control; (dose: 40.0 mg/kg/injection, schedule: Q01DX010 (sc), vehicle: saline) 42 % of control.

In the case of `COc1cccc2c1C(=O)c1c(O)c3c(c(O)c1C2=O)C[C@@](O)(C(C)=O)C[C@@H]3OC1CC(N)C(O)C(C)O1` (stereo not given in full), the T/C (dose: 1.0 mg/kg/injection, schedule: Q01DX010 (sc), vehicle: saline) was 159 % of control.

Take `NCCCC(N)(C(=O)O)C(F)F` (stereo not given): the T/C (dose: 300.0 mg/kg/injection, schedule: Q04DX004 (sc), vehicle: distilled water + alcohol) is 240 % of control; the T/C (dose: 600.0 mg/kg/injection, schedule: Q04DX004 (sc), vehicle: distilled water + alcohol) was 169 % of control; the T/C (dose: 1200.0 mg/kg/injection, schedule: Q04DX004 (sc), vehicle: distilled water + alcohol) was 75 % of control.

Take `COC1/C=C/O[C@@]2(C)Oc3c(C)c(O)c4c(O)c(cc(O)c4c3C2=O)NC(=O)/C(C)=C\C=C\[C@H](C)C(O)[C@@H](C)[C@@H](O)[C@@H](C)[C@H](OC(C)=O)[C@@H]1C` (stereo not given in full): the T/C by setting is: (dose: 150.0 mg/kg/injection, schedule: Q04DX004 (sc), vehicle: suspension in saline) 72 % of control; (dose: 300.0 mg/kg/injection, schedule: Q04DX004 (sc), vehicle: suspension in saline) 69 % of control.

Take `CO[C@@]12[C@H](COC(N)=O)C3=C(C(=O)C(C)=C(N)C3=O)N1C[C@@H]1N[C@@H]12`: the T/C (dose: 0.63 mg/kg/injection, schedule: Q04DX004 (sc), vehicle: saline) is 71 % of control; the T/C (dose: 1.5 mg/kg/injection, schedule: Q04DX004 (sc), vehicle: saline) is 10 % of control; the T/C (dose: 2.0 mg/kg/injection, schedule: Q04DX004 (ip), vehicle: saline) is 29 % of control; the T/C (dose: 3.0 mg/kg/injection, schedule: Q04DX003 (sc), vehicle: saline) was 13 % of control; the T/C (dose: 3.0 mg/kg/injection, schedule: Q04DX004 (ip), vehicle: saline) is 8 % of control; the T/C (dose: 3.0 mg/kg/injection, schedule: Q04DX004 (sc), vehicle: saline) was -59 % of control. For the same compound, the T/C (dose: 4.5 mg/kg/injection, schedule: Q04DX004 (ip), vehicle: saline) was -82 % of control and the T/C (dose: 6.0 mg/kg/injection, schedule: Q04DX003 (sc), vehicle: saline) was -37 % of control.

Regarding `CCN(CC)Cc1cc2[nH]c3c4ccc(Cl)cc4ncc3c2cc1OC`, the T/C was 187 % of control (dose: 37.5 mg/kg/injection, schedule: Q04DX004 (sc), vehicle: saline with Tween-80); 161 % of control (dose: 150.0 mg/kg/injection, schedule: Q04DX004 (sc), vehicle: saline with Tween-80); 94 % of control (dose: 300.0 mg/kg/injection, schedule: Q04DX004 (sc), vehicle: saline with Tween-80).

Turning to `C[C@@]1(CO)[C@H](O)CC[C@@]2(C)[C@H]1CC[C@H]1C[C@@H]3C[C@@]12CC[C@@]3(O)COC(=O)CN`, the T/C (dose: 8.0 mg/kg/injection, schedule: Q04DX004 (sc), vehicle: saline + alcohol) is 226 % of control; the T/C (dose: 16.0 mg/kg/injection, schedule: Q04DX004 (sc), vehicle: saline + alcohol) is 106 % of control; the T/C (dose: 32.0 mg/kg/injection, schedule: Q04DX004 (sc), vehicle: saline + alcohol) is 94 % of control; the T/C (dose: 64.0 mg/kg/injection, schedule: Q04DX004 (sc), vehicle: saline + alcohol) was 218 % of control; the T/C (dose: 500.0 micrograms/kg/injection, schedule: Q04DX004 (sc), vehicle: saline + alcohol) is 97 % of control; the T/C (dose: 1000.0 micrograms/kg/injection, schedule: Q04DX004 (sc), vehicle: saline + alcohol) is 108 % of control. The T/C (dose: 2000.0 micrograms/kg/injection, schedule: Q04DX004 (sc), vehicle: saline + alcohol) was 101 % of control and the T/C (dose: 4000.0 micrograms/kg/injection, schedule: Q04DX004 (sc), vehicle: saline + alcohol) was 73 % of control.

`C1CN(P2(N3CC3)=NP(N3CC3)(N3CC3)=NP(N3CC3)(N3CC3)=N2)CCO1` (stereo not given): the T/C by setting is: (dose: 6.25 mg/kg/injection, schedule: Q01DX010 (sc), vehicle: saline) 50 % of control; (dose: 12.5 mg/kg/injection, schedule: Q01DX010 (sc), vehicle: saline) 52 % of control; under setting [5], 27 % of control.

In the case of `C[C@]12CCC(=O)C=C1CC[C@@H]1[C@@H]2C(=O)C[C@@]2(C)[C@H]1CC[C@]2(O)C(=O)CO`, the T/C reads like this: under setting [2], 55 % of control; under setting [3], 42 % of control; under setting [4], 42 % of control.

As to `Cc1ccc(S(=O)(=O)NC(=O)C2C(=O)CC3(CCCCC3)CC2=O)cc1`, the T/C runs as follows: under setting [1], 80 % of control; under setting [2], 84 % of control; under setting [3], 58 % of control.

`NC1=NCN(C2OC(CO)C(O)C2O)C(=O)N1` (stereo not given): the T/C by setting is: under setting [5], 70 % of control; (dose: 50.0 mg/kg/injection, schedule: Q01DX010 (sc), vehicle: saline) 31 % of control; (dose: 100.0 mg/kg/injection, schedule: Q01DX010 (sc), vehicle: saline) 38 % of control.

For the compound `CC1=C[S+](c2ccccc2)c2cccc3cc4ccccc4c1c23` (stereo not given), the T/C (dose: 8.0 mg/kg/injection, schedule: Q04DX004 (sc), vehicle: saline with Tween-80) is 45 % of control and the T/C (dose: 16.0 mg/kg/injection, schedule: Q04DX004 (sc), vehicle: saline with Tween-80) was 66 % of control.

As to `O=C(CC(=O)C(F)(F)F)c1csc2ccccc12`, the T/C is 116 % of control under setting [1], 73 % of control under setting [2] and 87 % of control under setting [3].

For `O=NN(CCCl)C(=O)NCCO`, the T/C (dose: 12.5 mg/kg/injection, schedule: Q04DX004 (sc), vehicle: water) was 81 % of control.
